Results taken from publication PMC5766608, “Target engagement imaging of PARP inhibitors in small-cell lung cancer” (Nature Communications, 2018).
pIC50: −log10 of the molar value. Where two headings read alike, the source gives them in different places.

Assays:
PARP2 = molecular target: T1, PARP2 (Homo sapiens, UniProt Q9UGN5); test: PARP2 IC50 assay (BPS Bioscience, Strep-HRP, histone substrate); type: biochemical; details: footnote a: see Supplementary Fig. 2
T1 construct: purchased BPS Bioscience, San Diego, CA
Procedure: Assays were performed by BPS Bioscience, San Diego, CA. […] Data was reported by BPS a`s % enzyme activity curve from 0.03 nM or 0.1 nM to 1000 nM.

PARP1/2 [1] = test: Ex vivo autoradiography of target engagement; details: olaparib 50 mg/kg, talazoparib 0.3 mg/kg, 30 min prior to tracer; tumor collected 2 h post tracer
Text: Sections from 3 different tumor areas from each tumor (n = 3/group) were exposed to an autoradiography plate overnight and read the next day. ImageJ was used to quantify the signal intensity of each tissue. Adjacent sections were used for PARP1 IHC and H&E staining to confirm tissue identity and PARP1 expression.

PARP1/2 [2] = test: Blocking of PARPi-FL uptake by PARP inhibitors (confocal microscopy, flow cytometry); type: cell-based, human; details: JHU-LX22 cells
Procedure: Cells were then treated with fluorescent imaging agent PARPi-FL and either imaged via confocal microscopy or measured via flow cytometry. […] Then, cells were trypsinized, subjected to flow cytometry and analyzed for the relative PARPi-FL fluorescence signal. […] Error bars represent the SD of three independent experiments with three parallels each
We conducted confocal laser scanning microscopy to visualize the extent of intracellular blocking of PARPi-FL uptake by different PARPi. […] PARPi-FL was removed and cells were washed in fresh medium for 10 min. Next, cells were treated with 4% Paraformaldehyde (PFA) for 8 min on ice to ensure fixation. […] PARPi-FL intensity was determined by measuring the PARPi-FL fluorescence intensity in all nuclei, which were thresholded using Hoechst staining.
After the respective treatment/staining, which is described below for the different experiments, cells were washed in PBS, trypsinized, washed with flow buffer (1% BSA (w/v) in PBS), transferred to 5 mL flow cytometry tubes through the 40 µm cell strainer cap and left on ice until measurement in the flow cytometer (Fortessa II). Raw data were processed in FlowJo software in order to calculate PARPi-FL uptake per cell. Dead cells were excluded by eliminating DAPI positive cells from the analysis (Supplementary Fig. 8). Cell clumps and debris were eliminated using the corresponding gates (forward and side scatter) for the unstained cell population. PARPi-FL fluorescence was imaged in the FITC channel against side scatter (area).
Controls (cells incubated with medium instead of a PARP inhibitor) served as reference value and their PARPi-FL signal was defined as 100%.
To quantify the extent of blocking of PARPi-FL uptake by different PARPi, we quantified the intracellular PARPi-FL uptake in JHU-LX22 cells after incubation with PARP inhibitors.

PARP1/2 [3] = details: olaparib 50 mg/kg; for Initial blocking (t = 1 h): talazoparib 0.3 mg/kg i.v., 60 min between drug and tracer
Procedure: All PET/CT images (n = 90) were acquired on an Inveon PET/CT (Siemens) and reconstructed scans were analyzed using the Inveon Research Workplace Software (Siemens). To acquire PET/CT images, animals were anesthetized with 2% isoflurane and positioned on the scanner bed. […] PET data were collected for 5–10 min, followed by CT.
Activity concentration was quantified by averaging the mean values taken from VOIs drawn over the entire tumor as it appeared in the CT and portrayed as a mean %ID/g ± SD.

PARP = details: cited from earlier work
PARP1/2 [4] = details: for Blocking of [18F]PARPi tumor uptake (target engagement): 30 min before tracer, PET 2 h later
Text: Fig. 7 Variable dose blocking.
The control group received no therapeutic inhibitor.

T1 sequence (Q9UGN5 whole entry): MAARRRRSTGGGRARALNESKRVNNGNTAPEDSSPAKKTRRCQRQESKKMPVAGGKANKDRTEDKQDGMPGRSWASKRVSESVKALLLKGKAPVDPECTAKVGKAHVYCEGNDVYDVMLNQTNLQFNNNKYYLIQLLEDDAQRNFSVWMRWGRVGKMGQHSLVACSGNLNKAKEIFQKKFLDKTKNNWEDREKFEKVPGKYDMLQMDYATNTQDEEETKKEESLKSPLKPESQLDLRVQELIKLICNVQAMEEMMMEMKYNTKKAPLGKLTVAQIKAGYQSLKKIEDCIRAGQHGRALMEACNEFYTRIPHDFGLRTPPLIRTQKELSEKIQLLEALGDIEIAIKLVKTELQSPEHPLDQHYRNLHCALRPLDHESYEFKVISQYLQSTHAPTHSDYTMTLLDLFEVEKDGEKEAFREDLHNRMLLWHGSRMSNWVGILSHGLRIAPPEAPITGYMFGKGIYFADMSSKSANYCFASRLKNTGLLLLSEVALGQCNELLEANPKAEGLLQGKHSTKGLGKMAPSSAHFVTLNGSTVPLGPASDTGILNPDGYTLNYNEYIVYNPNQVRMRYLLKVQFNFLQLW

## CC1=CC(C)=[N+]2C1=Cc1ccc(CCC(=O)N3CCN(C(=O)c4cc(Cc5n[nH]c(=O)c6ccccc56)ccc4F)CC3)n1[B-]2(F)F [PARPi-FL]
PARP2
  pIC50: 9.51

## Cn1ncnc1[C@H]1c2n[nH]c(=O)c3cc(F)cc(c23)N[C@@H]1c1ccc(F)cc1 [Talazoparib, (8S,9R)-5-Fluoro-8-(4-fluorophenyl)-9-(1-methyl-1H-1,2,4-triazol-5-yl)-2,7,8,9-tetrahydro-3H-pyrido[4,3,2-de]phthalazin-3-one]
PARP1/2 [1]
  [18F]PARPi tumor uptake blocked (autoradiography): 45%
PARP1/2 [2]; pretreatment with inhibitor, then PARPi-FL
  Blocking of PARPi-FL uptake / target engagement, in words: most complete target engagement
PARP1/2 [3]
  Initial blocking (t = 1 h): 56%
PARP1/2 [3]; listed as talazoparib
  Initial blocking (t = 1 h): 56%
PARP1/2 [3]; target engagement over 48 h, single dose, talazoparib 0.3 mg/kg
  AUC: 1021 %h
PARP1/2 [3]; two phase decay fit of target engagement, talazoparib 0.3 mg/kg
  t1/2 (weighted): 9.8 h
PARP
  PARP trapping, in words: most effective PARP trapping agent
PARP1/2 [4]; 0.3 mg/kg i.v.
  Blocking of [18F]PARPi tumor uptake (target engagement): 50%
PARP1/2 [4]; 0.9 mg/kg i.v.
  Blocking of [18F]PARPi tumor uptake (target engagement): 64%
PARP1/2 [4]; 5 mg/kg i.v.
  Blocking of [18F]PARPi tumor uptake (target engagement): 89%
PARP1/2 [4]; 15 mg/kg i.v.
  Blocking of [18F]PARPi tumor uptake (target engagement): 84%
PARP1/2 [4]; single-phase decay curve fit, JHU-LX48 PDX tumor
  50% blocking dose: 0.36 mg/kg

## O=C(c1ccc(F)cc1)N1CCN(C(=O)c2cc(Cc3n[nH]c(=O)c4ccccc34)ccc2F)CC1 [^19F-PARPi]
PARP1/2 [2]; pretreatment with PARP inhibitor 25 min, then PARPi-FL 15 min
  Blocking of PARPi-FL uptake: more than 50%
